Laboratory results taken from the supplement of paper PMC9663587.

What was measured:
Dasatinib = compound: Cc1nc(Nc2ncc(C(=O)Nc3c(C)cccc3Cl)s2)cc(N2CCN(CCO)CC2)n1 [Dasatinib]
R0-3306 = compound: C1=CC2=C(C=CC(=C2)C=C3C(=O)NC(=NCC4=CC=CS4)S3)N=C1 [R0-3306]
LEE011/Ribociclib = compound: CN(C)C(=O)c1cc2cnc(Nc3ccc(N4CCNCC4)cn3)nc2n1C1CCCC1 [LEE011/Ribociclib]
Flavopiridol = compound: CN1CC[C@H](c2c(O)cc(O)c3c(=O)cc(-c4ccccc4Cl)oc23)[C@H](O)C1 [Flavopiridol]
TGX221 = compound: CC1=CN2C(=O)C=C(N=C2C(=C1)C(C)NC3=CC=CC=C3)N4CCOCC4 [TGX221]
Neratinib/HKI272 = compound: CCOc1cc2ncc(C#N)c(Nc3ccc(OCc4ccccn4)c(Cl)c3)c2cc1NC(=O)/C=C/CN(C)C [Neratinib/HKI272]
Taselisib/GDC0032 = compound: Cc1nc(-c2cn3c(n2)-c2ccc(-c4cnn(C(C)(C)C(N)=O)c4)cc2OCC3)n(C(C)C)n1 [Taselisib/GDC0032]
AZD2014 = compound: CNC(=O)c1cccc(-c2ccc3c(N4CCOC[C@@H]4C)nc(N4CCOC[C@@H]4C)nc3n2)c1 [AZD2014]
[1] = compound: CO[C@@H](C)Cn1c(=O)n(C)c2cnc3ccc(-c4cncc(C(C)(C)O)c4)cc3c21
[2] = compound: CC(=O)c1c(C)c2cnc(Nc3ccc(N4CCNCC4)cn3)nc2n(C2CCCC2)c1=O
[3] = compound: CNc1nc(-c2ccc3c(N)n[nH]c3c2)cc(N2C[C@@H](C(=O)NC3CCCCC3)CC[C@H]2C)n1
[4] = compound: CCC1=CN=CN=C1N2CCN(CC2)CC3=NC4=C(N3)C=C(C=C4)C(F)(F)F
senexin b = compound: CN1CCN(C(=O)c2ccc3cc(CCNc4ncnc5ccc(C#N)cc45)ccc3c2)CC1 [senexin b]
Olaparib/AZD2281 = compound: O=C(c1cc(Cc2n[nH]c(=O)c3ccccc23)ccc1F)N1CCN(C(=O)C2CC2)CC1 [Olaparib/AZD2281]
AZD6738 = compound: C[C@@H]1COCCN1c1cc(C2([S@](C)(=N)=O)CC2)nc(-c2cc[nH]c3nccc2-3)n1 [AZD6738]
[5] = compound: Cc1nn(C)c(COc2ccc(N3CCN(S(=O)(=O)N(C)C)CC3)cc2)c1-c1cccc2c(CCCOc3cccc4ccccc34)c(C(=O)O)n(CCN3CCOCC3)c12
Cediranib/AZD2171 = compound: COc1cc2c(Oc3ccc4[nH]c(C)cc4c3F)ncnc2cc1OCCCN1CCCC1 [Cediranib/AZD2171]
ABT-737 = compound: CN(C)CC[C@H](CSc1ccccc1)Nc1ccc(S(=O)(=O)NC(=O)c2ccc(N3CCN(Cc4ccccc4-c4ccc(Cl)cc4)CC3)cc2)cc1[N+](=O)[O-] [ABT-737]
Rucaparib = compound: CNCc1ccc(-c2[nH]c3cc(F)cc4c3c2CCNC4=O)cc1 [Rucaparib]
INK128/MLN0128 = compound: CC(C)n1nc(-c2ccc3oc(N)nc3c2)c2c(N)ncnc21 [INK128/MLN0128]
Doxorubicin = compound: COc1cccc2c1C(=O)c1c(O)c3c(c(O)c1C2=O)C[C@@](O)(C(=O)CO)C[C@@H]3O[C@H]1C[C@H](N)[C@H](O)[C@H](C)O1 [Doxorubicin]
AZD7762 = compound: NC(=O)Nc1cc(-c2cccc(F)c2)sc1C(=O)N[C@H]1CCCNC1 [AZD7762]
[6] = compound: CC(=O)Nc1cccc(-n2c(=O)n(C3CC3)c(=O)c3c(Nc4ccc(I)cc4F)n(C)c(=O)c(C)c32)c1
[7] = compound: COc1ccc2c(c1)[C@]1(C[C@H]1c1ccc3c(/C=C/c4ccc(CN5C[C@@H](C)O[C@@H](C)C5)cc4)n[nH]c3c1)C(=O)N2
Torin2 = compound: C1=CC(=CC(=C1)N2C(=O)C=CC3=CN=C4C=CC(=CC4=C32)C5=CN=C(C=C5)N)C(F)(F)F [Torin2]
AZD1775 = compound: C=CCn1c(=O)c2cnc(Nc3ccc(N4CCN(C)CC4)cc3)nc2n1-c1cccc(C(C)(C)O)n1 [AZD1775]
Alpelisib/BYL719 = compound: Cc1nc(NC(=O)N2CCC[C@H]2C(N)=O)sc1-c1ccnc(C(C)(C)C(F)(F)F)c1 [Alpelisib/BYL719]
BVD523 = compound: CC(C)Nc1cc(-c2c[nH]c(C(=O)N[C@H](CO)c3cccc(Cl)c3)c2)c(Cl)cn1 [BVD523]
THZ1 = compound: CN(C)C/C=C/C(=O)Nc1ccc(C(=O)Nc2cccc(Nc3ncc(Cl)c(-c4c[nH]c5ccccc45)n3)c2)cc1 [THZ1]
Ipatasertib/GDC0068 = compound: CC(C)NC[C@@H](C(=O)N1CCN(c2ncnc3c2[C@H](C)C[C@H]3O)CC1)c1ccc(Cl)cc1 [Ipatasertib/GDC0068]
Tivantinib/ARQ197 = compound: O=C1NC(=O)[C@@H](c2cn3c4c(cccc24)CCC3)[C@@H]1c1c[nH]c2ccccc12 [Tivantinib/ARQ197]
Volasertib/BI6727 = compound: CC[C@@H]1C(=O)N(C)c2cnc(Nc3ccc(C(=O)N[C@H]4CC[C@H](N5CCN(CC6CC6)CC5)CC4)cc3OC)nc2N1C(C)C [Volasertib/BI6727]
THZ531 = compound: CN(C)C/C=C/C(=O)Nc1ccc(C(=O)N2CCC[C@@H](Nc3ncc(Cl)c(-c4c[nH]c5ccccc45)n3)C2)cc1 [THZ531]
Pictilisib/GDC0941 = compound: CS(=O)(=O)N1CCN(Cc2cc3nc(-c4cccc5[nH]ncc45)nc(N4CCOCC4)c3s2)CC1 [Pictilisib/GDC0941]
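Further: breast cancer and non-malignant breast epithelial cell lines, Deep Dye Drop or Dye Drop imaging, nine half-log doses, GR normalized to time-zero plates and DMSO-only controls.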

| Cell Line | GR50, 72 h (Dasatinib) [µM] | GR50, 72 h (R0-3306) [µM] | GR50, 72 h (LEE011/Ribociclib) [µM] | GR50, 72 h (Flavopiridol) [µM] | GR50, 72 h (TGX221) [µM] | GR50, 72 h (Neratinib/HKI272) [µM] | GR50, 72 h (Taselisib/GDC0032) [µM] | GR50, 72 h (AZD2014) [µM] | GR50, 72 h [1] [µM] | GR50, 72 h [2] [µM] | GR50, 72 h [3] [µM] | GR50, 72 h [4] [µM] | GR50, 72 h (senexin b) [µM] | GR50, 72 h (Olaparib/AZD2281) [µM] | GR50, 72 h (AZD6738) [µM] | GR50, 72 h [5] [µM] | GR50, 72 h (Cediranib/AZD2171) [µM] | GR50, 72 h (ABT-737) [µM] | GR50, 72 h (Rucaparib) [µM] | GR50, 72 h (INK128/MLN0128) [µM] | GR50, 72 h (Doxorubicin) [µM] | GR50, 72 h (AZD7762) [µM] | GR50, 72 h [6] [µM] | GR50, 72 h [7] [µM] | GR50, 72 h (Torin2) [µM] | GR50, 72 h (AZD1775) [µM] | GR50, 72 h (Alpelisib/BYL719) [µM] | GR50, 72 h (BVD523) [µM] | GR50, 72 h (THZ1) [µM] | GR50, 72 h (Ipatasertib/GDC0068) [µM] | GR50, 72 h (Tivantinib/ARQ197) [µM] | GR50, 72 h (Volasertib/BI6727) [µM] | GR50, 72 h (THZ531) [µM] | GR50, 72 h (Pictilisib/GDC0941) [µM] |
| --- | --- | --- | --- | --- | --- | --- | --- | --- | --- | --- | --- | --- | --- | --- | --- | --- | --- | --- | --- | --- | --- | --- | --- | --- | --- | --- | --- | --- | --- | --- | --- | --- | --- | --- |
| CAL51 | 0.0581 | 8.06 | 3.72 | 0.2 | > 10 | 2.25 | 0.134 | 0.163 | 0.0113 | 0.373 | > 10 | > 10 | > 10 | 7.19 | 5.34 | > 10 | 3.05 | > 10 | > 10 | 0.015 | 0.00858 | 0.0446 | > 1 | 0.00556 | 0.0179 | 0.274 | 6.1 | > 10 | 0.385 | 2.98 | 0.588 | 0.00591 | > 1 | 2.89 |
| CAL120 | 0.0496 | 8.5 | > 10 | 0.209 | > 10 | 0.585 | 2.53 | 0.184 | 0.00177 | > 3.16 | > 10 | > 10 | > 10 | 5.12 | > 10 | > 10 | 1.04 | 2.15 | > 10 | 0.0115 | 0.00944 | 0.156 | 0.0468 | 0.00365 | 0.0105 | 0.197 | > 10 | 9.62 | 0.0579 | > 10 | 0.251 | 0.00185 | 0.15 | 2.07 |
| CAMA1 | > 10 | 4.36 | 0.0104 | 0.178 | > 10 | 2.83 | 1.77 | < 0.001 | < 0.001 | 0.0742 | > 10 | > 10 | 1.09 | > 10 | 8.16 | > 10 | 5.02 | > 10 | > 10 | 0.00961 | 0.00747 | 0.253 | > 1 | 0.00356 | 0.00918 | 5.45 | > 10 | 2.73 | 0.0336 | 0.341 | 0.276 | 0.00782 | 0.139 | 1.55 |
| EFM19 | 0.0184 | 6.14 | 1.71 | 0.284 | > 10 | > 3.16 | 0.00333 | 0.00131 | 0.00381 | 0.525 | 2.18 | > 10 | > 10 | > 10 | > 10 | > 10 | > 10 | 8.35 | > 10 | 0.00896 | 0.0513 | 1.48 | > 1 | 0.0156 | 0.0114 | 3.9 | 0.282 | > 10 | 0.383 | 1.45 | 0.658 | 0.0101 | 0.466 | 0.23 |
